From the NIST ThermoML archive (doi:10.1016/j.tca.2005.11.005)
± gives the expanded uncertainty stated by the source.

Experiment: molar heat capacity at constant pressure; xn = mol fraction of the nth substance listed
Settings: 101 kPa, Crystal, Small sample (50 mg) DSC

SMILES: [Ce+4].[O-2].[O-2] [ceric oxide] + [O-2].[O-2].[U+4]
- molar heat capacity at constant pressure (298 K, x2 = 0): 62.6 ± 1.3 J/K/mol
- molar heat capacity at constant pressure (298 K, x2 = 0.197): 62.8 ± 1.3 J/K/mol
- molar heat capacity at constant pressure (298 K, x2 = 0.491): 64.2 ± 1.3 J/K/mol
- molar heat capacity at constant pressure (298 K, x2 = 0.809): 70.1 ± 1.4 J/K/mol
- molar heat capacity at constant pressure (300 K, x2 = 0): 62.7 ± 1.3 J/K/mol
- molar heat capacity at constant pressure (300 K, x2 = 0.197): 64 ± 1.3 J/K/mol
- molar heat capacity at constant pressure (300 K, x2 = 0.491): 64.8 ± 1.3 J/K/mol
- molar heat capacity at constant pressure (300 K, x2 = 0.809): 70.4 ± 1.4 J/K/mol
- molar heat capacity at constant pressure (400 K, x2 = 0): 68.8 ± 1.4 J/K/mol
- molar heat capacity at constant pressure (400 K, x2 = 0.197): 73.3 ± 1.5 J/K/mol
- molar heat capacity at constant pressure (400 K, x2 = 0.491): 76.8 ± 1.5 J/K/mol
- molar heat capacity at constant pressure (400 K, x2 = 0.809): 79.7 ± 1.6 J/K/mol
- molar heat capacity at constant pressure (500 K, x2 = 0): 73 ± 1.5 J/K/mol
- molar heat capacity at constant pressure (500 K, x2 = 0.197): 81.2 ± 1.6 J/K/mol
- molar heat capacity at constant pressure (500 K, x2 = 0.491): 85.9 ± 1.7 J/K/mol
- molar heat capacity at constant pressure (500 K, x2 = 0.809): 86 ± 1.7 J/K/mol
- molar heat capacity at constant pressure (600 K, x2 = 0): 76.5 ± 1.5 J/K/mol
- molar heat capacity at constant pressure (600 K, x2 = 0.197): 84.6 ± 1.7 J/K/mol
- molar heat capacity at constant pressure (600 K, x2 = 0.491): 89.2 ± 1.8 J/K/mol
- molar heat capacity at constant pressure (600 K, x2 = 0.809): 88.9 ± 1.8 J/K/mol
- molar heat capacity at constant pressure (700 K, x2 = 0): 78.6 ± 1.6 J/K/mol
- molar heat capacity at constant pressure (700 K, x2 = 0.197): 84.5 ± 1.7 J/K/mol
- molar heat capacity at constant pressure (700 K, x2 = 0.491): 89.6 ± 1.8 J/K/mol
- molar heat capacity at constant pressure (700 K, x2 = 0.809): 90.3 ± 1.8 J/K/mol
- molar heat capacity at constant pressure (800 K, x2 = 0): 79.3 ± 1.6 J/K/mol
- molar heat capacity at constant pressure (800 K, x2 = 0.197): 85.2 ± 1.7 J/K/mol
- molar heat capacity at constant pressure (800 K, x2 = 0.491): 88.3 ± 1.8 J/K/mol
- molar heat capacity at constant pressure (800 K, x2 = 0.809): 92 ± 1.8 J/K/mol

SMILES: [O-2].[O-2].[U+4] [uranium dioxide] + [Ce+4].[O-2].[O-2]
- molar heat capacity at constant pressure (298 K, x1 = 1): 64 ± 1.3 J/K/mol
- molar heat capacity at constant pressure (300 K, x1 = 1): 64.1 ± 1.3 J/K/mol
- molar heat capacity at constant pressure (400 K, x1 = 1): 72.7 ± 1.5 J/K/mol
- molar heat capacity at constant pressure (500 K, x1 = 1): 77.5 ± 1.6 J/K/mol
- molar heat capacity at constant pressure (600 K, x1 = 1): 80.4 ± 1.6 J/K/mol
- molar heat capacity at constant pressure (700 K, x1 = 1): 82.6 ± 1.7 J/K/mol
- molar heat capacity at constant pressure (800 K, x1 = 1): 85.9 ± 1.7 J/K/mol
